Data: US6511670B1, “(poly)thiaalkynoic compounds and pharmaceutical/cosmetic compositions comprised thereof” (Societe L'Oreal S.A., priority 1999, dated 2003)

Tests used:
Type in all cases: cell-based
PPAR-α = molecular target: T1, PPAR-α (Homo sapiens, UniProt Q07869); experiment: transactivation test of PPAR-type receptors (luciferase reporter, cotransfected HeLa cells), PPAR-α; conditions: HeLa cells cotransfected with PPAR-α expression vector and PPRE-luciferase reporter, 24 hours, n.a. = not active; for AC50: concentration giving 50% of the activity of the reference molecule; for α Ymax %: relative to Reference 1
T1 construct: expressed in transfected cells; host or cells: HeLa cells
T1 sequence (Q07869 1-468): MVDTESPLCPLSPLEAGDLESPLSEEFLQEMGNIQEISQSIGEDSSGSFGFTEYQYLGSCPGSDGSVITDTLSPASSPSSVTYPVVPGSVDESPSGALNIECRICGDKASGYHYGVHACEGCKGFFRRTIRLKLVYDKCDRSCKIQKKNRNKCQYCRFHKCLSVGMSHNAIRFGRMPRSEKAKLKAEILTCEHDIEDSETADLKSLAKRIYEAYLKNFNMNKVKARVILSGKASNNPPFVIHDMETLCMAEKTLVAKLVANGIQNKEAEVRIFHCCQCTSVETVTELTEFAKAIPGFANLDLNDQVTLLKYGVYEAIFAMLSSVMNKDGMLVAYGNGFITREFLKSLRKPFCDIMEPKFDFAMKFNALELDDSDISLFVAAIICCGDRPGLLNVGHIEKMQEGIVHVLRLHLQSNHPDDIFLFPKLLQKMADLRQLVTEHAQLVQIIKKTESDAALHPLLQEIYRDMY
Description: (§1) This activity is determined with the aid of a reporter enzyme (luciferase) for the activation due to the compound via one of the PPAR receptors, and more particularly of the PPAR-α type.
(§2) The biological tests carried out corresponded to those described in the application. […] Thus, the activating power via PPAR-α, PPAR-γ or PPAR-δ of molecules was evaluated with a transactivation test in which HeLa cells were cotransfected with an expression vector encoding these receptors and a reporter plasmid containing a PPRE response element cloned upstream of a portion of a promoter of the SV40 virus and of the luciferase gene. The cotransfected cells were treated for 24 hours with the molecules to be tested and the activity of the luciferase was determined by luminescence.

PPAR-γ = molecular target: T2, PPAR-γ (Homo sapiens, UniProt P37231); experiment: transactivation test of PPAR-type receptors (luciferase reporter, cotransfected HeLa cells), PPAR-γ; conditions: HeLa cells cotransfected with PPAR-γ expression vector and PPRE-luciferase reporter, 24 hours, n.a. = not active; for AC50: concentration giving 50% of the activity of the reference molecule; for γ Ymax %: relative to Reference 2
T2 construct: expressed in transfected cells; host or cells: HeLa cells
T2 sequence (P37231 1-505): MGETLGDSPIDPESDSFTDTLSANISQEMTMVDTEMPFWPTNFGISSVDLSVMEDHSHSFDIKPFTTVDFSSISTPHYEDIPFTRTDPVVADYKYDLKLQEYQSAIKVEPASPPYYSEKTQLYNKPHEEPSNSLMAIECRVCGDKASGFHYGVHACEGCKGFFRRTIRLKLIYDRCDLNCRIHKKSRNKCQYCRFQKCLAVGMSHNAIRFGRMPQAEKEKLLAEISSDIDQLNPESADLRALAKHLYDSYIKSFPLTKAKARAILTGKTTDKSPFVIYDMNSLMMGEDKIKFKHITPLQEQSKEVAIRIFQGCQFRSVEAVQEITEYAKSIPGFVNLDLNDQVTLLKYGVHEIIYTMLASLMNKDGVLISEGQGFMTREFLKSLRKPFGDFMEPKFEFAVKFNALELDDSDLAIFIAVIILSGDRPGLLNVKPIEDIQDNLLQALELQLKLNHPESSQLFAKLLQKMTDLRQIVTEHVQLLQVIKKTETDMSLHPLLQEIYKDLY
Description: as §1, §2

PPAR-δ = molecular target: T3, PPAR-δ (Homo sapiens, UniProt Q03181); experiment: transactivation test of PPAR-type receptors (luciferase reporter, cotransfected HeLa cells), PPAR-δ; conditions: HeLa cells cotransfected with PPAR-δ expression vector and PPRE-luciferase reporter, 24 hours, n.a. = not active; for AC50: concentration giving 50% of the activity of the reference molecule; for δ Ymax %: relative to Reference 2
T3 construct: expressed in transfected cells; host or cells: HeLa cells
T3 sequence (Q03181 1-441): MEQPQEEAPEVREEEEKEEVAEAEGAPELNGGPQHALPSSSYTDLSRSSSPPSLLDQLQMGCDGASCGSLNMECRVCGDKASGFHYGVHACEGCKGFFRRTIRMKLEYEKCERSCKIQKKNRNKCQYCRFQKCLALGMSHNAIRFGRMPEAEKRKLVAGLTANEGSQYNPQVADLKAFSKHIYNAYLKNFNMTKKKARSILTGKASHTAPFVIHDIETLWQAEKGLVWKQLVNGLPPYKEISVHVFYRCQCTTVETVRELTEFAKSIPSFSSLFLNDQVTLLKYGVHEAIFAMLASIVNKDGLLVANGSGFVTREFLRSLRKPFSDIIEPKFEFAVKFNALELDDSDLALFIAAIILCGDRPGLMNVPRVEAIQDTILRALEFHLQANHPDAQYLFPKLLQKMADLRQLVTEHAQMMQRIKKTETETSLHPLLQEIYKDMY
Description: as §1, §2

Structure (SMILES)	AC50 (PPAR-α)	α Ymax % (PPAR-α)	AC50 (PPAR-γ)	γ Ymax % (PPAR-γ)	AC50 (PPAR-δ)	δ Ymax % (PPAR-δ)
CCCCCC#CCC#CCC#CCC#CCSCC(=O)O [Comparative Example 1, 3-thia-5,8,11,14-eicosatetraynoic acid]	4 µM	128%	3 µM	83%	7 µM	125%
CCCCCCCCC#CCC#CCC#CCSCC(=O)O [Comparative Example 2, 3-thia-5,8,11-eicosatriynoic acid]	5 µM	112%	4 µM	58%	11 µM	74%
CCCCCCCCSCC#CCSCC(=O)O [Example 8, 3,8-Dithia-5-hexadecynoic Acid]	2.9 µM	91%	–	–	–	–
CCCCCCCCCCC#CCSCC(=O)O [Example 10, 3-Thia-5-hexadecynoic Acid]	1.5 µM	142%	–	–	–	–
CCCCCCCCC#CCC#CCSCC(=O)O [Example 14, 3-Thia-5,8-heptadecadiynoic Acid]	1 µM	116%	–	–	–	–
CCCCCC#CCC#CCC#CCSCC(=O)O [Example 21, 3-Thia-5,8,11-heptadecatriynoic Acid]	3 µM	138%	–	–	–	–
Cc1cccc(Nc2cc(Cl)nc(SCC(=O)O)n2)c1C [Reference 1, [4-chloro-6-(2,3-dimethylphenylamino)pyrimidin-2-ylsulfanyl]acetic acid]	–	100%	–	–	–	–
